From US20130029928A1 (priority 2010, published 2013)
“And” between values parts separate entries of the source, which are not always exact repeats. Equal entries are not always repeated. “Also recorded” adds a separate entry of the source. Where two headings read alike, the source gives them in different places.

How the values were obtained:
[1] = tested on: panel of human tumour-derived cell lines; test: BrdU incorporation (cell proliferation) in the SRB cell line panel; format: cell-based; details: 48 hrs
[2] = tested on: panel of tumour cell lines; test: ATP cytotoxicity assay on the panel of tumour cell lines (CXR1002 alone; test items alone vs combined with CXR1002); details: Homo sapiens, read-out: cytotoxicity IC50 to tumour cells (lowest of range)
Description: (§1) The SRB assay was performed according to the method specified by the NIC/NIH. […] Assay replicates were independent in time and up to 4 replicates were performed per cell line.
Cells were plated at the optimal plating density for that cell line in 96-well plates and allowed to attach overnight. The next day, the medium was removed and replaced with fresh medium containing the dose ranges of test items. The cells were exposed to 5-FU, cisplatin, docetaxel, doxorubicin, geldanamycin, gemcitabine, rapamycin or roscovitine in Roswell Park Memorial Institute (RPMI) medium containing 10% Foetal Calf Serum (FCS) and 2 mM Glutamine at 37° C. and 5% CO2 for 48 hours. […] There were 3 replicates for each test item concentration.
(§2) Following exposure to Test Items, the CellTitre-Glo Luminescent Cell Viability Assay to measure ATP content was performed according to the manufacturer's detailed instructions (Promega Corporation, Technical Bulletin No. 288, and Cell notes, Issue 10, 2004).

PC3 = test: ATP depletion cytotoxicity assay 48 hr; format: cell-based, human
Description: (§3) Assay replicates were independent in time and up to 4 replicates were performed per cell line.
(§4) Cells were plated at the optimal plating density for that cell line in 96-well plates and allowed to attach overnight. The next day, the medium was removed and replaced with fresh medium containing the dose ranges of test items. […] There were 3 replicates for each test item concentration.
as §2
(§5) Cells were plated at the optimal plating density for that cell line in 96-well plates and allowed to attach overnight. The next day, cells were pre-treated with the inhibitors UO126 or LY294002 (see Tables 18 & 20) for 2 hrs, the medium was removed and replaced with fresh medium containing the appropriate dose of the test item. […] Cells were exposed to these compounds in Roswell Park Memorial Institute (RPMI) medium containing 10% Foetal Calf Serum (FCS) and 2 mM Glutamine at 37° C. and 5% CO2 for 48 hours. There were 3 replicates for each test item concentration.
(§6) Following exposure to Test Items, the CellTitre-Glo Luminescent Cell Viability Assay to measure ATP content will be performed according to the manufacturer's detailed instructions (Promega Corporation, Technical Bulletin No. 288, and Cell notes, Issue 10, 2004).

MDA-MB-157 = test: SRB cytotoxicity assay 48 hr; format: cell-based, human; details: read-out: IC50 Values After 48 Hrs Exposure
Description: as §1

CaCo-2 = test: SRB cytotoxicity assay 48 hr; format: cell-based, human; details: read-out: IC50 Values After 48 Hrs Exposure
Description: as §1

Stability / shelf life = format: physicochemical
OVCAR-3 = test: ATP depletion cytotoxicity assay 48 hr; format: cell-based; details: Homo sapiens
Description: as §3, §4, §2
Cells were plated at the optimal plating density for that cell line in 96-well plates and allowed to attach overnight. The next day, cells were pre-treated with the inhibitors UO126 or LY294002 (see Tables 18 & 20) for 2 hrs, the medium was removed and replaced with fresh medium containing the appropriate dose of the test item. […] Cells were exposed to these compounds in Roswell Park Memorial Institute (RPMI) medium containing 10% Foetal Calf Serum (FCS) and 2 mM Glutamine at 37° C. and 5% CO2 for 48 hours. There were 3 replicates for each test item concentration. […]

HPAFII = test: ATP depletion cytotoxicity assay 48 hr; format: cell-based, human
Description: as §2
(§7) Cells were plated at the optimal plating density for that cell line in 96-well plates and allowed to attach overnight. […] Cells were exposed to these compounds in Roswell Park Memorial Institute (RPMI) medium containing 10% Foetal Calf Serum (FCS) and 2 mM Glutamine at 37° C. and 5% CO2 for 48 hours. There were 3 replicates for each test item concentration.
as §6

U2OS = test: ATP depletion cytotoxicity assay 48 hr; format: cell-based; details: Homo sapiens, Study CXR0798, read-out: IC50 1
Description: as §1

[3] = HT-29 xenograft in nude mice; format: in vivo, nude mouse; details: nude, mouse, plasma, intraperitoneal, 25 mg/kg; HT-29 model; 24 hrs post last dose; Day 29
Excerpt: Animals were inoculated with a tumour cell suspension on each flank and the tumours were allowed to grow for 16 days.
These effects are consistent with a transient effect on the liver associated with mild toxicity and reversible liver enlargement. In rodents, this type of effect is usually due to hepatic PPARα activation associated with peroxisome proliferation.

OUMS-27 = test: ATP depletion cytotoxicity assay 48 hr; format: cell-based, human
Description: as §2, §7, §6

[4] = tested on: panel of human tumour-derived cell lines; test: Hoechst 3342 staining (apoptotic cells) in the SRB cell line panel; format: cell-based
[5] = tested on: HepG2 (liver) xenograft tumours; test: HepG2 xenograft model of liver carcinoma; format: in vivo, nude mouse
Excerpt: There was no obvious difference between the two different dosing regimens.

A2780 = test: SRB cytotoxicity assay 48 hr; format: cell-based, human; details: read-out: IC50 Values After 48 Hrs Exposure
Description: as §1

Hep3B = test: SRB cytotoxicity assay 48 hr; format: cell-based, human; details: read-out: IC50 Values After 48 Hrs Exposure
Description: as §1

[6] = Phase I study CXR1002-001: urinary excretion; format: in vivo, human; details: 24 hour urine post each weekly dose
A375 = test: SRB cytotoxicity assay 48 hr; format: cell-based, human; details: read-out: IC50 Values After 48 Hrs Exposure
Description: as §1

Water solubility = format: physicochemical
HepG2 = test: ATP depletion cytotoxicity assay 48 hr; format: cell-based, human
Description: as §3, §4, §2, §5, §6

TOV-21G = test: ATP depletion cytotoxicity assay 48 hr; format: cell-based, human
Description: as §3, §4, §2, §5, §6

[7] = read-out: IC50 1-4 (independent replicates)
[8] = ATP depletion, 48 hrs, read-out: IC50 1-4 (independent replicates)

O=C(O)C(F)(F)C(F)(F)C(F)(F)C(F)(F)C(F)(F)C(F)(F)C(F)(F)F [CXR1002]
BrdU incorporation ([1]; 10 μM): No marked effects | BrdU incorporation ([1]; 30 μM): variable | BrdU incorporation ([1]; 300 μM, all but one of the cell lines): Significant suppression of BrdU incorporation | IC50 [2]: ≥ 273 µM | IC50 (PC3; Homo sapiens, PC-3, 48 h, read-out: IC50 1-4 (independent replicates)): 650 µM | IC50 (PC3; Homo sapiens, PC-3, 48 h, read-out: IC50 Mean): 642 µM | IC50 (PC3; [7]): 625 µM | IC50 (MDA-MB-157): 463 ± 168 µM | IC50 (CaCo-2): 708 ± 159 µM | stability (Stability / shelf life): extremely stable | IC50 (OVCAR-3; [7]): 650 µM | IC50 (OVCAR-3; read-out: IC50 Mean): 650 µM | IC50 (HPAFII; Homo sapiens, HPAF-II, 48 h, read-out: IC50 1-4 (independent replicates), ATP depletion, 48 hrs, HPAFII): > 1000 µM | IC50 (HPAFII; Homo sapiens, HPAF-II, 48 h, read-out: IC50 Mean, ATP depletion, 48 hrs, HPAFII): > 1000 µM | IC50 (HPAFII; read-out: IC50 1-4 (independent replicates), ATP depletion, 48 hrs, HPAFII): > 1000 µM and 750 µM | IC50 (U2OS): > 1000 µM | concentration at 24 h [3]: 277 µM | IC50 (OUMS-27; [8]): 800 µM | IC50 (OUMS-27; Homo sapiens, 48 h, ATP depletion, 48 hrs, read-out: IC50 1-4 (independent replicates)): 1000 µM | IC50 (OUMS-27; Homo sapiens, 48 h, ATP depletion, 48 hrs, read-out: IC50 Mean): 900 µM | IC50 (OUMS-27; Homo sapiens, 48 h, Example 7, 48 hour, CXR1002 0-1 mM, U0126 fixed 10 μM where combined, read-out: IC50): 821 µM | induction of apoptosis ([4]; 10 μM): little effect | induction of apoptosis ([4]; 30 μM): variable responses | induction of apoptosis ([4]; 300 μM): marked induction of apoptosis | growth inhibition response ([5]; 25 mg/kg 2× or 3× per week): modest response | Absolute Tumour Volume as a Percentage of Saline Control ([5]; HepG2, 25 mg/kg, combined regimens, Day 53): 77.05% | Terminal CXR1002 plasma levels ([5]; HepG2 model, ×3 weekly regimen, Days 60-64): 520 µM and 520 ± 46 µM | IC50 (A2780): 238 ± 7.5 µM | IC50 (Hep3B): 215 ± 28.3 µM | urinary excretion [6]: increases with multiple doses | IC50 (A375): 222 ± 21.2 µM | solubility in water (Water solubility): freely soluble in water; also recorded: highly water soluble | IC50 (HepG2; Homo sapiens, HepG2, 48 h, read-out: IC50 1-4 (independent replicates)): 240 µM | IC50 (HepG2; Homo sapiens, HepG2, 48 h, read-out: IC50 Mean): 273 µM | IC50 (HepG2; [7]): 230 µM and 350 µM | IC50 (TOV-21G; [8]): 600 µM and 700 µM | IC50 (TOV-21G; Homo sapiens, TOV21G, 48 h, ATP depletion, 48 hrs, read-out: IC50 1-4 (independent replicates)): 610 µM | IC50 (TOV-21G; Homo sapiens, TOV21G, 48 h, ATP depletion, 48 hrs, read-out: IC50 Mean): 637 µM | IC50 (TOV-21G; Homo sapiens, TOV21G, 48 h, Example 7, 48 hour, CXR1002 0-1 mM, U0126 fixed 10 μM where combined, read-out: IC50): 615 µM
